The record followed here is patent US10945978B2, “Treatment and diagnosis of melanoma” (The Rockefeller University, priority 2012, dated 2021).

Where a name gives a salt, the structure may show the parent alone.

Test [1] has as its system SK-Mel-2 human melanoma cells. Kind of test: Subcutaneous SK-Mel-2 tumor growth in immunocompromised mice. It is filed as in vivo. The conditions noted are these: oral, GW3965-supplemented diet.
The subject of test [2] is B16F10, MeWo and SK-Mel-334.2 cells. Briefly: Overall survival of mice bearing subcutaneous melanoma tumors. It is filed as in vivo, mouse. The following applies: chow supplemented with GW3965 100 mg/kg after tumor establishment.
Test [3] concerns MeWo human melanoma cells. Kind of test: Tumor histochemistry (MECA-32, Ki-67, cleaved caspase-3) of MeWo tumors. It is filed as in vivo. The conditions noted are these: GW3965 diet 20 mg/kg, 35 days. From the text: Animals were intracardially perfused with PBS followed by 4% paraformaldehyde (PFA). Fixed lungs were embedded in paraffin and sectioned into 5-jam-thick increments. Macroscopic lung metastatic nodules were visualized by H&E staining. For analysis of tumor endothelial cell content, proliferation, and apoptosis, primary tumor paraffin-embedded sections were stained with antibodies against MECA-32 (Developmental Studies Hybridoma Bank, University of Iowa), KI-67 (ab15580, Abcam), and cleaved caspase-3 (9661, Cell Signaling), respectively.
Tumors were excised from mice and fixed in 4% paraformaldehyde at 4° C. for 48 hours. Then, tumors were paraffin-embedded and sectioned into 5-μm-thick increments. For endothelial cell content analysis in tumors, tumor sections were stained with a primary antibody against the mouse endothelial cell marker MECA-32 (Developmental Studies Hybridoma Bank, The University of Iowa, IA) and counterstained with DAPI nuclear stain. To determine tumor cell proliferation and apoptosis, tumor sections were stained with antibodies against the proliferative marker Ki-67 (Abcam, ab15580, Cambridge, Mass.) and the apoptotic marker cleaved caspase-3 (9661, Cell Signaling, Danvers, Mass.), respectively. Various Alexa Flour dye-conjugated secondary antibodies were used to detect primary antibodies. […] Endothelial cell content density and tumor proliferation rate were quantified by calculating the average percentage of MECA-32 or Ki-67 positively-staining area out of the total tumor area. Tumor apoptosis was measured by counting the number of cleaved caspase-3 expressing cells per given tumor area.

In test [4] the test system is B-Raf^V600E/+; Pten^−/−; CDKN2A^−/− primary mouse melanoma cells. Briefly: B-RafV600E/+; Pten−/−; CDKN2A−/− melanoma cells in syngeneic C57BL/6 mice. It is filed as in vivo. The following applies: GW3965 diet 100 mg/kg. As to the method:
Melanoma cells used for in vivo metastasis assays were transduced with a stably expressed retroviral construct encoding a luciferase reporter gene (Ponomarev et al., 2004), allowing us to monitor the in vivo progression of melanoma cells by bioluminescence imaging. The following numbers of melanoma cells, resuspended in 100 μL of PBS, were injected intravenously via the tail-vein: 4×10^4 MeWo cells, 2.5×10^5 HT-144 cells, 2×10^5 SK-Mel-334.2 cells, 5×10^4B16F10 cells, and 1×10^5 YUMM cells. The MeWo, HT-144, and SK-Mel-334.2 cells were injected into 6-8 week-old sex-matched NOD scid mice, while the B16F10 and YUMM cells were injected into 6-8 week-old sex-matched C57BL/6 mice. […] To assess the effect of GW3965 treatment on brain metastasis, 1×10^5 MeWo brain-metastatic derivatives were injected intracardially into athymic nude mice. Immediately following injection, mice were randomly assigned to a control diet or GW3965-supplemented diet (100 mg/kg). To determine whether oral delivery of GW3965 can inhibit the progression of incipient metastasis, NOD Scid mice were intravenously injected with 4×10^4 MeWo cells and the cells were allowed to colonize the lungs for 42 days, after which mice were blindedly assigned to a control diet or a GW3965-supplemented diet (100 mg/kg) treatment.

The test system of test [5] is RCC human renal cancer cells, PANC1 human pancreatic cancer cells, H460 human lung cancer cells. Kind of test: Matrigel invasion of renal, pancreatic and lung cancer cells treated with GW3965. It is filed as cell-based. The conditions noted are these: 1 μM for 72 hours prior to the assay. As to the method: Various cell lines (5×10^4 RCC human renal cancer cells, 5×10^4 PANC1 human pancreatic cancer cells, and 5×10^4 H460 human lung cancer cells) were treated with DMSO or GW3965 at 1 μM for 56 hours. The cells were serum starved for 16 hours in 0.2% FBS media in the presence of DMSO or GW3965. Following serum starvation, the cells were subjected to the trans-well invasion assay using a matrigel invasion chamber system (354480, BD Biosciences). Invasion chambers were pre-equilibrated prior to the assay by adding 0.5 mL of starvation media to the top and bottom wells. Meanwhile, cancer cells were trypsinized and viable cells were counted using trypan blue. Cancer cells were then resuspended at a concentration of 1×10^5 cells/1 mL starvation media, and 0.5 mL of cell suspension, containing 5×10^4 cells, was seeded into each trans-well. The invasion assay was allowed to proceed for 24 hours at 37° C. […] Following fixation, the inserts were washed in PBS and then cut out and mounted onto slides using VectaShield mounting medium containing DAPI nuclear stain (H-1000, Vector Laboratories). The basal side of each insert was imaged using an inverted fluorescence microscope (Zeiss Axiovert 40 CFL) at 5× magnification, and the number of DAPI-positive cells was quantified using ImageJ.

Test [6] deals with MDA-468 human breast cancer cells. Briefly: MDA-468 breast cancer tumor growth in Nod Scid gamma mice. It is filed as in vivo. The following applies: GW3965-supplemented diet 75 mg/kg/day. As to the method:
The mice were assigned to a control diet treatment or a GW3965-supplemented diet treatment (75 mg/kg/day) two days prior to injection of the cancer cells.

The subject of test [7] is MeWo-LM2 cells. Briefly: Lung metastatic colonization by MeWo-LM2 cells in NOD-SCID mice. It is filed as in vivo, human. The conditions noted are these: cells pre-incubated with recombinant ApoE 100 μg/mL for 24 hours before i.v. injection. As to the method:
After 8 hours, the transfection media was replaced with fresh media. After 48 hours, 1×10^5 cells were injected intravenously into NOD-SCID mice to assess lung metastatic colonization or through intracardiac injection into athymic nude mice to assess systemic metastasis. For cell invasion and endothelial recruitment in vitro assays, the cells were used 96 hours post-transfection.

On to `O=C(O)Cc1cccc(OCCCN(Cc2cccc(C(F)(F)F)c2Cl)CC(c2ccccc2)c2ccccc2)c1` [GW3965 2, 3-[3-[N-(2-Chloro-3-trifluoromethylbenzyl)-(2,2-diphenylethyl)amino]propyloxy] phenylacetic acid hydrochloride], for which the tumor growth inhibition in test [1] worked out at 49%. The overall survival time result in test [2] is “substantially prolonged”. The “decrease in the number of actively proliferating tumor cells” value in test [3] (Ki-67) is listed as 23%. Also, in test [3] (MECA-32), the “reduction in the endothelial cell content of tumors” value was “roughly 2 fold”. Also, the “number of apoptotic cells” value in test [3] (cleaved caspase-3) is given as “without a change”. Besides, in test [4], the overall survival entry is given as “extended”; the “tumor growth and lung metastasis” value is “robustly inhibited”. In addition, the tumor cell invasion result in test [5] is given as “inhibition”. Moreover, in test [6], the “breast cancer tumor size” value is recorded as “significant reduction”.

Consider “recombinant human ApoE: recombinant human ApoE3 (4696, BioVision)”, for which the “suppression of metastatic colonization” value in test [7] was “over 300 fold”.
